Experimental data from US9051351B2, “Hepatocyte growth factor mimics as therapeutic agents” (Washington State University, priority 2011, dated 2015).
“Also recorded” adds a separate entry of the source. Where a SMILES comes first, the peptide text is derived from it. [ ]: non-standard residue; d: D form. dNle = CCCC[C@@H](N)C(=O)O; Ahx = NCCCCCC(=O)O

Experiments:
human HGF = biological target: T1, human HGF (Homo sapiens, UniProt P14210); assay: HGF dimerization (PAGE, silver staining); type: biochemical; settings: analog 10^−10 M, heparin, 30 minute incubation
T1 construct: purchased R&D Systems (Minneapolis, Minn.)
Description: HGF dimerization was assessed using PAGE followed by silver staining (Kawas et al., 2011). Human HGF at a concentration of 0.08 ng/μl with or without 6-AH analogs was incubated with heparin at a final concentration of 5 μg/ml. Loading buffer was then added to each sample and the mixture separated by native PAGE using gradient Criterion XT precast gels (4-12% Bis-Tris; Biorad Laboratories, Hercules, Calif.). Next the gel was silver stained for the detection of the HGF monomers and dimers. Bands were quantitated from digital images using a UVP phosphoimager (Upland, Calif.).

MDCK cells [1] = assay: Inhibition of HGF-dependent scattering in MDCK cells; type: cell-based, canine; settings: HGF 20 ng/ml, 48 h
Description: MDCK cells were grown to 100% confluency on the coverslips in six-well plates and washed twice with PBS. The confluent coverslips were then aseptically transferred to new six well plates containing 900 μl serum free DMEM. Norleual, Hinge peptide, and/or HGF (20 ng/ml) were added to appropriate wells. Control wells received PBS vehicle. Plates were incubated at 37° C. with 5% CO2 for 48 hours. Media was removed and cells were fixed with methanol. Cells were stained with Diff-Quik Wright-Giemsa (Dade-Behring, Newark, Del.) and digital images were taken. Coverslips were removed with forceps and more digital images were captured. Pixel quantification of images was achieved using Image J and statistics were performed using Prism 5 and InStat v.3.05.
MDCK cells were grown to 100% confluency on the coverslips in six-well plates and washed twice with PBS. The confluent coverslips were then aseptically transferred to new six well plates containing 900 μl serum free DMEM. Norleual, Hinge peptide, and/or HGF (20 ng/ml) were added to appropriate wells. Control wells received PBS vehicle. Plates were incubated at 37° C. with 5% CO2 for 48 h. Media was removed and cells were fixed with methanol. […] Pixel quantification of images was achieved using Image J and statistics were performed using Prism 5 and InStat v.3.05 (GraphPad; San Diego, Calif.).

MDCK cells [2] = assay: HGF-dependent MDCK cell proliferation (MTT); type: cell-based, canine; settings: analog 10^−10M, HGF 10 ng/ml, 4 days
Description: 5000 MDCK cells were seeded into the wells of a 96 well plates in 10% FBS DMEM. To induce cellular quiescence, the cells were serum deprived for 24 h prior to initiating the treatments. Following serum starvation, 10 ng/ml HGF alone and with various concentrations of 6-AH analogs or PBS vehicle were added to the media. The cells were allowed to grow under these conditions for 4 days with a daily addition of 6-AH analogs. On the fourth day, 1 mg/ml of […] (MTT, Sigma-Aldrich) prepared in PBS was added to the cells and incubated for 4 h. Dimethyl sulfoxide diluted in a 0.01M glycine buffer was added to solubilize the cell membranes and the absorbance of reduced MTT in the buffer was quantitated at 590 nm using a plate reader (Biotek Synergy 2, Winooski, Vt.). HGF-dependent proliferation was determined by subtracting the basal proliferation (in the absence of HGF) from total proliferation rates in groups containing HGF.

hippocampal neurons [3] = assay: Dendritic spine counts (spinogenesis) in mRFP-β-actin transfected dissociated hippocampal neurons; type: cell-based, rat; settings: HGF 10 ng/ml, Dihexa or Nle1-AngIV 10^−12 M
Description: Hippocampal neurons (2×10^5 cells per square cm) were cultured from P1 Sprague Dawley rats on plates coated with poly-L-lysine from Sigma (St. Louis, Mo.; molecular weight 300,000). […] Each experiment was repeated at least three times using independent culture preparations. […] Hippocampal neurons (2×10^5 cells per square centimeter) were cultured from P1-2 Sprague Dawley rats on plates coated with poly-L-lysine from Sigma (St. Louis, Mo.; molecular weight 300,000). Hippocampal neurons were maintained in Neurobasal A media from Invitrogen (Carlsbad, Calif.) supplemented with B27 from Invitrogen, 0.5 mM L-glutamine, and […] cytosine-D-arabinofuranoside from Sigma added at 2 days in vitro. Hippocampal neurons were then cultured a further 3-7 days, at which time they were either transfected or treated with various pharmacological reagents as described in the text or figure legends. Neurons were transfected with mRFP-β-actin on day in vitro 6 […] using LipofectAMINETM 2000 (Invitrogen) according to the manufacturer's protocol. […] On DIV7 the cells were treated with vehicle (H20) or peptides (as described in the text) added to media. […] Five 50 μm long segments of dendrite from at least 10 neurons per data point were analyzed for each data point reported. Each experiment was repeated at least three times using independent culture preparations. […] A target sequence for c-Met was designed using RNAi central design program (see the website located at […].edu/). The target sequence […] NO: 2) was inserted into pSUPER vector (Oligoengine, Seattle Wash.) which drives endogenous production of shRNA under the H1 promoter. The shRNA was transfected into cells using the lipofectamine method described above. Verification of receptor knockdown was done by creating a c-[…]-Myc tagged gene product using the Gateway cloning system (Invitrogen). The Met protein coding sequence was cloned from rat whole brain cDNA using primers obtained from Integrated DNA Technologies, Inc. The amplified product was gel purified and a band corresponding to 190 kDa band excised and cloned into a […] destination vector (Gateway). Hippocampal neurons (2×10^5 cells per square cm) were cultured from P1 Sprague Dawley rats on plates coated with poly-L-lysine from Sigma (St. Louis, Mo.; molecular weight […]).

hippocampal neurons [4] = assay: Immunocytochemistry: percent correlation of spines to synaptic markers; type: cell-based, rat; settings: HGF 10 ng/ml, 5 days
Description: (§1) Transfected neurons were treated, fixed and stained. Briefly, cells were permeablized with 0.1% Triton X-100 detergent (Bio-Rad; Hercules, Calif.) for 10 minutes. An 8% bovine serum albumin (Intergen Company; Burlington, Mass.) in PBS was used to prevent non-specific binding for one hour at R.T.; Primary antibody incubations were at a 1:2500 dilution (see below) in 1% BSA in PBS at 4° C. overnight. Secondary antibody, 1:3000 Alexafluor 488 goat-anti-mouse (Invitrogen: Carlsbad, Calif.) was applied for two hours at room temperature. Coverslips were mounted with ProLong Gold anti-fade reagent (Invitrogen; Carlsbad, Calif.) and all washes were done with PBS. Imaging and analysis were performed as described above. For presynaptic excitatory transmission the VGLUT1 (Synaptic Systems, Goettingen, Germany) marker (Balschun, Moechars et al.) was employed and for general presynaptic transmission synapsin1 (Synaptic Systems, Goettingen, Germany) (Ferreira and Rapoport 2002) was applied. A postsynaptic function was established by PSD-95 (Milipore, Billerica, Mass.) (El-Husseini, Schnell et al. 2000). In each instance the total number of spines was counted for the treatment groups, control, Nle1-AngIV and Dihexa, to ensure an active phenotype. The total number of actin enriched spines adjacent to VGLUT1 or Synapsin were counted and converted to a percentage as the percent correlation of treatment-induced spines to presynaptic markers is a strong indicator of ability to transmit excitatory signals.
as §1, with “fixed and stained as previously described in Chapter two. Briefly, cells” for “fixed and stained. Briefly, cells”, “enriched spines (red) adjacent to” for “enriched spines adjacent to”
Transfected neurons were treated and fixed as described above. Following fixation, cells were rinsed in PBS and permeabilized with 0.1% Triton® X-100 detergent (Bin-Rad; Hercules, Calif.), followed by two rinses in PBS and blocked with 8% bovine serum albumin (Intergen Company; Burlington, Mass.) in PBS for 1 h. […]

c-Met receptor = assay: c-Met phosphorylation in acute adult hippocampal slices; type: cell-based, rat; settings: 30 minutes
From the text: Adult Sprague-Dawley rats (250 g+) obtained from Harlan Laboratories (Ca, USA) were anesthetized with isofluorane (Vet One™, MWI, Meridian, Id., USA) and decapitated. The brain was rapidly removed and placed into ice-chilled artificial cerebrospinal fluid (aCSF) for approximately 30 s. Both hemispheres were separated by a mid-saggital cut and both hippocampi removed. Slices were sectioned cross- and length-wise (400 μm) to ensure penetrability of the drug, using a Mcllwain tissue chopper (Brinkmann, Gomshall, UK) and transferred to a gassed (95% O2/5% CO2) incubation chamber containing aCSF for 90 minutes at room temperature. Slices were transferred to fresh tubes, aCSF was removed by careful suctioning and replaced with aCSF containing vehicle (aCSF+aCSF), 100 ng/ml with carrier free adult recombinant Hepatocyte Growth Factor (HGF) (R and D Systems, MN, USA) in aCSF, 10^−10 M Hinge (Harding lab), […], 10^−10 M Dihexa (Harding lab) in aCSF, 10^−12 M Dihexa in aCSF or 50 ng/ml HGF+10^−12 M Dihexa in aCSF for 30 minutes at 37° C. with gentle rocking. aCSF was removed and the slices were lysed using RIPA buffer (Upstate/Milipore, Billerica, Mass.) and inhibitor Cocktails I and II (Sigma, St. Louis, Mo.), sonicated on ice and clarified by centrifugation for 30 minutes, 13,000 rpm at 4° C. The supernatant was removed from the pellet and stored at −80° C. or processed immediately for gel electrophoresis.
Protein concentration of the samples was quantified using the BCA method (Pierce, Rockford, Ill.) following the manufacturers protocol. Samples were added to SDS-PAGE buffer and boiled for 10 min. before loading onto a 4-12% Bis-Tris pre-cast gel (Invitrogen, Carlsbad, Calif.) for electrophoresis. Proteins were transferred onto PVDF membranes (Bio Rad, Hercules, Calif.) and blocked with AquaBlock™ (New England Biolabs, Ipswich, Mass.) for 1 hour at room temperature (RT). Primary antibody incubation was done in AquaBlock™ with rabbit anti-Met and […] phospho-Met (Tyr1234/1235) (1:1000, Cell Signaling Technology, Danvers, Mass.) overnight at 4° C. Alternating washes were done with PBS and PBST. Secondary antibody (IRDye) (Rockland, Gilbertsville, Pa.) incubations were done in AquaBlock™ for one hour at RT. Blots were imaged using LI-COR Odyssey Infrared Imaging System (LI-COR Biosciences, Lincoln, Nebr.).

in vitro = settings: male, rat, pH 7.38

T1 sequence (P14210 32-728): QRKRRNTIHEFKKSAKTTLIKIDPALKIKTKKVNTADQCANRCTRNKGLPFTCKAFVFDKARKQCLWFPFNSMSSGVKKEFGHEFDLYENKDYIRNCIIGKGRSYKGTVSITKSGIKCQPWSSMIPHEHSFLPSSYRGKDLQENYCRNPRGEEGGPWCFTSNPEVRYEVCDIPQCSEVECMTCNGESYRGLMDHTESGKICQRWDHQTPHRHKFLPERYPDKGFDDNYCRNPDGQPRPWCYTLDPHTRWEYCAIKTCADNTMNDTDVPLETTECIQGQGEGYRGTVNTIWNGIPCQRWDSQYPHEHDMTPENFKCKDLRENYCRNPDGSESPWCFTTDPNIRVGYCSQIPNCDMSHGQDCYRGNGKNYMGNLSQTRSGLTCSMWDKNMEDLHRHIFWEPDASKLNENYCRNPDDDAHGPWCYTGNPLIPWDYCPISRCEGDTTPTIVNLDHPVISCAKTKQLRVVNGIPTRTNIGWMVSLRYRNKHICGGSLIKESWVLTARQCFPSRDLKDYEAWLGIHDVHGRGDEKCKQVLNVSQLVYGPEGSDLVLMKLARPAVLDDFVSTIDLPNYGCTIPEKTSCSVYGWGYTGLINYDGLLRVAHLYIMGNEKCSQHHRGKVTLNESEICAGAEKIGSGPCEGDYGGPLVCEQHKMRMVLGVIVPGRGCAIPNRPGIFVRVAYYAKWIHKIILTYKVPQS

With `CCCC[C@@H](N)C(=O)N[C@@H](CCSC)C(=O)N[C@H](C(=O)NCCCCCC(N)=O)[C@@H](C)CC` [D-Nle-Met-Ile-NH—(CH2)5—CONH2] (H-[dNle]MI[Ahx]-NH2) the “inhibition of HGF dimerization” value (human HGF) was “unable to block dimerization at the concentration tested” and the “inhibition of HGF-dependent MDCK cell scattering” value (MDCK cells [1]) was “The HGF and HGF+Met groups were not different”.
For `CCCC[C@@H](N)C(=O)N[C@@H](Cc1c[nH]c2ccccc12)C(=O)N[C@H](C(=O)NCCCCCC(N)=O)[C@@H](C)CC` [D-Nle-Trp-Ile-NH—(CH2)5—CONH2] (H-[dNle]WI[Ahx]-NH2), the “inhibition of HGF dimerization” value (human HGF) was “intermediate inhibition of dimerization”, the “inhibition of HGF dimerization” value (human HGF; listed as Trp) was “statistically different than the HGF treated group” and the “inhibition of HGF-dependent MDCK cell proliferation” value (MDCK cells [2]) was “showed inhibitory activity, albeit less than that observed with the most potent analogs”.
For “HGF: carrier free adult recombinant Hepatocyte Growth Factor (R and D Systems)”, the “mean spine numbers per 50 μm dendrite length” value (hippocampal neurons [3]; neurons transfected with mRFP-β-actin alone, 48 hours) was 20.6 spines per 50 μm dendrite leng, the “mean spine numbers per 50 μm dendrite length” value (hippocampal neurons [3]; neurons transfected with mRFP-β-actin and shMet (c-Met knock-down)) was 12.4 spines per 50 μm dendrite leng and the “correlation between Synapsin and postsynaptic actin-enriched spines” value (hippocampal neurons [4]) was 98%. The “c-Met phosphorylation vs vehicle (aCSF)” value (c-Met receptor; saturating doses: HGF 100 ng/ml, Dihexa 10^−10 M) was “increased c-Met phosphorylation; also recorded: effectively augment c-Met phosphorylation” and the “c-Met phosphorylation vs vehicle (aCSF)” value (c-Met receptor; sub-threshold doses: HGF 50 ng/ml, Dihexa 10^−12 M) was “not statistically different from control treated slices; also recorded: did not significantly increase c-Met receptor phosphorylation”.
Compound `CCOc1ccc2ccc(=O)oc2c1` [7-ethoxycoumarin, reference compound] has a microsomal CLint at 5 µM (in vitro; pooled liver microsomes) of 137 µL/min/mg.
With `CN1C(C(=O)Nc2ccccn2)=C(O)c2ccccc2S1(=O)=O` [piroxicam, reference compound] the microsomal CLint at 5 µM (in vitro; microsomes) was 60.2 µL/min/mg.
